System in one assay: not listed separately
Kind of assay: Inhibition of carbonic anhydrase in human whole blood assessed as reduction in CO2 hydration preincubated for 15 mins prior to testing measured for 10 to 100 secs by stopped-flow assay.
Consider `Cc1nc(N(C)C(=O)Cc2ccc(-c3ccccn3)cc2)sc1S(N)(=O)=O` [PRITELIVIR], for which the 50% inhibitory concentration (IC50) (in general, the concentration that inhibits the measured activity by half) worked out at 65.3 nM.

For a further assay, the target named is Carbonic anhydrase 9 (Homo sapiens, UniProt Q16790). Kind of assay: Inhibition of recombinant human Carbonic anhydrase 9 assessed as reduction in CO2 hydration preincubated for 15 mins prior to testing measured for 10 to 100 secs by stopped-flow assay.
On to `Cc1nc(N(C)C(=O)Cc2ccc(-c3cc(F)ccc3F)cc2)sc1S(N)(=O)=O`, for which the Ki (commonly a dissociation constant, usually derived from enzyme kinetics or from competition with a known ligand) was 51.4 nM. In the case of `Cc1nc(N(C)C(=O)Cc2ccc(-c3ccccn3)cc2)sc1S(N)(=O)=O`, the Ki amounted to 464 nM.

`Cc1nc(N(C)C(=O)Cc2ccc(-c3cccc[n+]3C)cc2)sc1S(N)(=O)=O`: the inhibitory constant (Ki) worked out at 261 nM. The same measure, in the same setting: in the case of `Cc1nc(N(C)C(=O)Cc2ccc(-c3ccccc3F)cc2)sc1S(N)(=O)=O` it was 10.1 nM; in that of `CNS(=O)(=O)c1sc(N(C)C(=O)Cc2ccc(-c3ccccc3)cc2)nc1C`, 40.8 nM. Same read-out and setting: to `Cc1nc(N(C)C(=O)Cc2ccc(-c3ccccn3)cc2)sc1S(N)(=O)=O` [PRITELIVIR] belongs 81 nM; to `Cc1nc(N(C)C(=O)Cc2ccc(-c3ccccc3)cc2)sc1S(N)(=O)=O`, 0.9 nM. On the same count and under the same terms, to `CNS(=O)(=O)c1sc(N(CCN(C)C)C(=O)Cc2ccc(-c3ccccc3)cc2)nc1C` belongs 14 nM; to `CCc1nc(N(C)C(=O)Cc2ccc(-c3ccccn3)cc2)sc1S(N)(=O)=O`, 28.1 nM; to `CNS(=O)(=O)c1sc(N(C)C(=O)Cc2ccc(-c3ccccc3F)cc2)nc1C`, 25.6 nM.

For `Cc1nc(N(C(=O)Cc2ccc(-c3ccccc3)cc2)C2CC2)sc1S(N)(=O)=O`, the Ki was found to be 1 nM. Consider `Cc1nc(N(C)C(=O)Cc2ccc(-c3cnccn3)cc2)sc1S(N)(=O)=O`, for which the Ki turned out to be 69.1 nM. Same read-out and setting: in the case of `Cc1nc(N(C)C(=O)Cc2ccc(-n3cccn3)cc2)sc1S(N)(=O)=O` it was 35 nM; in that of `CN(C(=O)Cc1ccc(-c2ccccn2)cc1)c1nc(CO)c(S(N)(=O)=O)s1`, 42.9 nM. Same read-out and setting: to `CNS(=O)(=O)c1sc(N(C)C(=O)Cc2ccc(-c3ccccn3)cc2)nc1C` belongs 24.7 nM; to `Cc1nc(N(CCN(C)C)C(=O)Cc2ccc(-c3ccccc3)cc2)sc1S(N)(=O)=O`, 22 nM; to `COc1c(F)cccc1-c1ccc(CC(=O)N(C)c2nc(C)c(S(N)(=O)=O)s2)cc1`, 21.8 nM. Still for that read-out and setting: to `Cc1nc(N(C)C(=O)Cc2ccc(-c3ccccc3)cc2)sc1S(=O)(=O)NCCO` belongs 44.5 nM; to `Cc1nc(N(C)C(=O)Cc2ccc(-c3cccc(F)c3)cc2)sc1S(N)(=O)=O`, 0.9 nM.

In the next assay the target is Carbonic anhydrase 5A, mitochondrial (Homo sapiens, UniProt P35218). The experiment in a line: Inhibition of recombinant human Carbonic anhydrase 5A assessed as reduction in CO2 hydration preincubated for 15 mins prior to testing measured for 10 to 100 secs by stopped-flow assay.
Carbonic anhydrase 5A, mitochondrial, sequence (P35218 whole entry): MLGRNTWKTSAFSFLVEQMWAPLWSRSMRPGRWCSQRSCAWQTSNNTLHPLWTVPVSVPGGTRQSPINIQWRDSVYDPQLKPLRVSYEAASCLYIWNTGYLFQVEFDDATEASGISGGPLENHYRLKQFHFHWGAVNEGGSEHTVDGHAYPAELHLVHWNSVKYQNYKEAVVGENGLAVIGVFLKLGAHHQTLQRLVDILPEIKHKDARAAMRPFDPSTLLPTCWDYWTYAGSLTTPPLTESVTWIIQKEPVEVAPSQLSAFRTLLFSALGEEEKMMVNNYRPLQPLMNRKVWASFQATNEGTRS
Turning to `Cc1nc(N(C)C(=O)Cc2ccc(-c3ccccn3)cc2)sc1S(N)(=O)=O`, the inhibitory constant (Ki) turned out to be 816 nM. Take `Cc1nc(N(C)C(=O)Cc2ccc(-c3ccccn3)cc2)sc1S(N)(=O)=O` [PRITELIVIR]: the Ki was determined as 474 nM.

In the next assay the target is Carbonic anhydrase 12 (Homo sapiens, UniProt O43570). Kind of assay: Inhibition of recombinant human Carbonic anhydrase 12 assessed as reduction in CO2 hydration preincubated for 15 mins prior to testing measured for 10 to 100 secs by stopped-flow assay.
Carbonic anhydrase 12, sequence (O43570 whole entry): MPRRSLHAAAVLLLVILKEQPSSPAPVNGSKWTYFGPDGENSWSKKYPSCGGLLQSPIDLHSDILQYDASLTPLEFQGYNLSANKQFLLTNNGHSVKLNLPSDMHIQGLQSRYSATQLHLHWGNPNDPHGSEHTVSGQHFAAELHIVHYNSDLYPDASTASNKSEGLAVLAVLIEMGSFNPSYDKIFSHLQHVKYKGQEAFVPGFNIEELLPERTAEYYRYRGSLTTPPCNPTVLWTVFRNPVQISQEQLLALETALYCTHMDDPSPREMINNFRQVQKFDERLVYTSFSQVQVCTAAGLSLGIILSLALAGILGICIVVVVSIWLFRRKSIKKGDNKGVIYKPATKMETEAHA
In the case of `Cc1nc(N(C)C(=O)Cc2ccc(-c3ccccn3)cc2)sc1S(N)(=O)=O`, the Ki was 61.3 nM.

With `Cc1nc(N(C)C(=O)Cc2ccc(-c3ccccn3)cc2)sc1S(N)(=O)=O` [PRITELIVIR], the Ki was found to be 77.2 nM.

In a further assay the target is Carbonic anhydrase 2 (Homo sapiens, UniProt P00918). Kind of assay: Inhibition of recombinant human Carbonic anhydrase 2 assessed as reduction in CO2 hydration preincubated for 15 mins prior to testing measured for 10 to 100 secs by stopped-flow assay.
As to `Cc1nc(N(C)C(=O)Cc2ccc(-c3ccccn3)cc2)sc1S(N)(=O)=O`, the Ki worked out at 14 nM. Still for that read-out and setting: in the case of `Cc1nc(N(C)C(=O)Cc2ccc(-c3ccccn3)cc2)sc1S(N)(=O)=O` [PRITELIVIR] it was 12.8 nM.

System in the next assay: not listed separately
The experiment in a line: Inhibition of carbonic anhydrase in rat whole blood assessed as reduction in CO2 hydration preincubated for 15 mins prior to testing measured for 10 to 100 secs by stopped-flow assay.
On to `Cc1nc(N(C)C(=O)Cc2ccc(-c3ccccn3)cc2)sc1S(N)(=O)=O` [PRITELIVIR], for which the IC50 came to 115 nM.

The target in another assay is Carbonic anhydrase 5B, mitochondrial (Homo sapiens, UniProt Q9Y2D0). Kind of assay: Inhibition of recombinant human Carbonic anhydrase 5B assessed as reduction in CO2 hydration preincubated for 15 mins prior to testing measured for 10 to 100 secs by stopped-flow assay.
Carbonic anhydrase 5B, mitochondrial, sequence (Q9Y2D0 whole entry): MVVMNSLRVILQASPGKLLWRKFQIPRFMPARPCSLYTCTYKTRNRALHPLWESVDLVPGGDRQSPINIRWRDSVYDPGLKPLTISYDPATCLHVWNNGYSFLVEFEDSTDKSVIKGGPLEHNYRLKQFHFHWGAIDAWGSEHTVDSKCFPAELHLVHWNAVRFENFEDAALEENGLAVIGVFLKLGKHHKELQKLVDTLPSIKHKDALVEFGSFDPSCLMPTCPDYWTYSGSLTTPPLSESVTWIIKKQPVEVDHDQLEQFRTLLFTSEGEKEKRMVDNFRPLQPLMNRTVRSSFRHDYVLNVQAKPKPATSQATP
`Cc1nc(N(C)C(=O)Cc2ccc(-c3ccccn3)cc2)sc1S(N)(=O)=O`: the Ki stood at 251 nM. With `Cc1nc(N(C)C(=O)Cc2ccc(-c3ccccn3)cc2)sc1S(N)(=O)=O` [PRITELIVIR], the Ki amounted to 389 nM.

System in the next assay: not listed separately
Kind of assay: Inhibition of carbonic anhydrase in mouse whole blood assessed as reduction in CO2 hydration preincubated for 15 mins prior to testing measured for 10 to 100 secs by stopped-flow assay.
`Cc1nc(N(C)C(=O)Cc2ccc(-c3ccccn3)cc2)sc1S(N)(=O)=O` [PRITELIVIR]: the IC50 is 134 nM.

For another assay, the target named is Carbonic anhydrase 1 (Homo sapiens, UniProt P00915). The experiment in a line: Inhibition of recombinant human Carbonic anhydrase 1 assessed as reduction in CO2 hydration preincubated for 15 mins prior to testing measured for 10 to 100 secs by stopped-flow assay.
Carbonic anhydrase 1, sequence (P00915 whole entry): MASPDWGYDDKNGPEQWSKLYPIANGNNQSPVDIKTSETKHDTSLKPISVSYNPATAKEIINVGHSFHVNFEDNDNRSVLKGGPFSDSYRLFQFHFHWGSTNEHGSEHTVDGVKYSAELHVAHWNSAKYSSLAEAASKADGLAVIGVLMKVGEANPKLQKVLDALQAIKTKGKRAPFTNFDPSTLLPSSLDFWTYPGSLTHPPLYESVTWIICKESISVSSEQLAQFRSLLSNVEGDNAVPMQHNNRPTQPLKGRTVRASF
In the case of `Cc1nc(N(C)C(=O)Cc2ccc(-c3ccccn3)cc2)sc1S(N)(=O)=O`, the Ki stood at 262 nM. On the same count and under the same terms, to `Cc1nc(N(C)C(=O)Cc2ccc(-c3ccccn3)cc2)sc1S(N)(=O)=O` [PRITELIVIR] belongs 323 nM.
